The results in this text go back to ChEMBL document CHEMBL1159112, “Synthesis, biological evaluation, and molecular modeling of berberine derivatives as potent acetylcholinesterase inhibitors” (Bioorg Med Chem, 2010).

Assay [1] deals with T1, Acetylcholinesterase (Electrophorus electricus, UniProt O42275). The assay can be described thus: Inhibition of electric eel AChE by modified Ellman method. On the technique in general: In Ellman's method for cholinesterases, released thiocholine reacts with DTNB.
A short description of assay [2]: Selectivity for electric eel AChE over horse serum BChE.
For another assay, the target named is Cholinesterase (Equus caballus, UniProt P81908).
Assay [3] addresses T1, Acetylcholinesterase. The assay can be described thus: Inhibition of electric eel AChE by enzyme kinetics assay.

T1 sequence (O42275 whole entry): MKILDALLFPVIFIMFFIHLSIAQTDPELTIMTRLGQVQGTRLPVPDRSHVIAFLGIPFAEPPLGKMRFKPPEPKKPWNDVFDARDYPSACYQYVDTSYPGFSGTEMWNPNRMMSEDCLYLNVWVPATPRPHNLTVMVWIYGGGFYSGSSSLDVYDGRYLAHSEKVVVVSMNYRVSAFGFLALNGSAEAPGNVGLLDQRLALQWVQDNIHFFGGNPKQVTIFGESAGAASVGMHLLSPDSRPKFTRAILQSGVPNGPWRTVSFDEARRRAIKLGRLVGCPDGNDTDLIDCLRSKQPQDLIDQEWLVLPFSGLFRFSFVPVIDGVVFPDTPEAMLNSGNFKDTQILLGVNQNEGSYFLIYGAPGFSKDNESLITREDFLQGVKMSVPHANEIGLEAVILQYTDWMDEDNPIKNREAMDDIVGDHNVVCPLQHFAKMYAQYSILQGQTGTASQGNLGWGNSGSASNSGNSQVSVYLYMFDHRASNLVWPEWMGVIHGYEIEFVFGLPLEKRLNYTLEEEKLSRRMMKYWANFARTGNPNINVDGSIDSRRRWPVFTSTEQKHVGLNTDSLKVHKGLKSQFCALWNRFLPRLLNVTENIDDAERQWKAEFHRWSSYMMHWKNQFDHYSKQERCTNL
Sequence of Cholinesterase (P81908 whole entry): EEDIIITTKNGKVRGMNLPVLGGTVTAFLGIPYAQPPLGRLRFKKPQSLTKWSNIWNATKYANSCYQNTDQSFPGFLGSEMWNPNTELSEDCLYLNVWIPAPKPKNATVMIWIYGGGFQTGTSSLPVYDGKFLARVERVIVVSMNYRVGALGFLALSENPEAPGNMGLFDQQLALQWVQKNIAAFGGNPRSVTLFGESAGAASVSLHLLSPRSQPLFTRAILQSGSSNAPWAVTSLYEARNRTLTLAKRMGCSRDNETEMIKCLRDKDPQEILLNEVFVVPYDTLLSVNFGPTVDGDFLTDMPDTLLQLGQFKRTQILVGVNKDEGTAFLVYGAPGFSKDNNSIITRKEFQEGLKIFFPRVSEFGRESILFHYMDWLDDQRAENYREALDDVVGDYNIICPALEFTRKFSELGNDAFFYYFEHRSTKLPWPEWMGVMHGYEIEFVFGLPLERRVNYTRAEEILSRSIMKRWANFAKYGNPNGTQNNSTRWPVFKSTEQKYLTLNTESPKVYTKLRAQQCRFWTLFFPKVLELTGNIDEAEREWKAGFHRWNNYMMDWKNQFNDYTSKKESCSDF

As for `COc1ccc2cc3[n+](cc2c1OCCCCCCOc1cccc2[nH]c4ccccc4c12)CCc1cc2c(cc1-3)OCO2`, the IC50 (commonly the concentration needed to halve the response being measured) at Acetylcholinesterase [1] was found to be 2100 nM. The compound `COc1ccc2cc3[n+](cc2c1OCCCCCCOn1nnc2ccccc21)CCc1cc2c(cc1-3)OCO2` showed an IC50 against Acetylcholinesterase [1] of 515 nM. Moreover, in assay [2], the Ratio IC50 turned out to be 5.5. For the compound `COc1ccc2cc3[n+](cc2c1OCCCCOn1nnc2ccccc21)CCc1cc2c(cc1-3)OCO2`, the IC50 on Acetylcholinesterase [1] amounted to 224 nM; on Cholinesterase it was 4170 nM. Also, the Ratio IC50 in assay [2] turned out to be 18.6. Compound `COc1ccc2cc3[n+](cc2c1OCCCOc1ccccc1)CCc1cc2c(cc1-3)OCO2` registered an IC50 on Acetylcholinesterase [1] of 123 nM. The compound `COc1ccc2cc3[n+](cc2c1OCCCCCOc1ccccc1)CCc1cc2c(cc1-3)OCO2` gave an IC50 against Acetylcholinesterase [1] of 398 nM. `COc1ccc2cc3[n+](cc2c1OCCCCCCOc1ccccc1)CCc1cc2c(cc1-3)OCO2` showed an IC50 against Acetylcholinesterase [1] of 520 nM.

In the case of `COc1ccc2cc3[n+](cc2c1OCCOc1cccc2[nH]c4ccccc4c12)CCc1cc2c(cc1-3)OCO2`, the IC50 against Acetylcholinesterase [1] amounted to 1230 nM. With `COc1ccc2cc3[n+](cc2c1OCCCCCOn1nnc2ccccc21)CCc1cc2c(cc1-3)OCO2`, the IC50 against Acetylcholinesterase [1] stood at 280 nM; on Cholinesterase, 2490 nM. Moreover, in assay [2], the Ratio IC50 turned out to be 8.9. `COc1ccc2cc3[n+](cc2c1OCCCCOc1cccc2[nH]c4ccccc4c12)CCc1cc2c(cc1-3)OCO2` came in with an IC50 against Acetylcholinesterase [1] of 856 nM.

Compound `COc1ccc2cc3[n+](cc2c1OCCOn1nnc2ccccc21)CCc1cc2c(cc1-3)OCO2` yielded an IC50 against Acetylcholinesterase [1] of 375 nM. On Acetylcholinesterase [1], `COc1ccc2cc3[n+](cc2c1OCCCCCOc1cccc2[nH]c4ccccc4c12)CCc1cc2c(cc1-3)OCO2` returned an IC50 of 1680 nM. `COc1ccc2cc3[n+](cc2c1OCCOc1ccccc1)CCc1cc2c(cc1-3)OCO2` gave an IC50 against Acetylcholinesterase [1] of 224 nM. As to `COc1ccc2cc3[n+](cc2c1OC)CCc1cc2c(cc1-3)OCO2` [BERBERINE CHLORIDE], at Acetylcholinesterase [1], 374 nM corresponded to half-maximal inhibition (IC50). In addition, the Ki (commonly a measure of affinity in units of concentration, obtained from inhibition or displacement) on Acetylcholinesterase [3] is 289 nM. `COc1ccc2cc3[n+](cc2c1OCCCOc1cccc2[nH]c4ccccc4c12)CCc1cc2c(cc1-3)OCO2` displayed an IC50 against Acetylcholinesterase [1] of 1120 nM. Take `COc1ccc2cc3[n+](cc2c1OCCCOn1nnc2ccccc21)CCc1cc2c(cc1-3)OCO2`: the figures for the IC50 on Acetylcholinesterase [1] and against Cholinesterase were 359 nM and 2890 nM, respectively. Further, the Ratio IC50 in assay [2] was determined as 8.
